Laboratory results from patent EP4782437A1, “HETEROARYL COMPOUND, AND PREPARATION METHOD THEREFOR AND USE THEREOF IN MEDICINE” (Jiangsu Hengrui Pharmaceuticals Co., Ltd., priority 2023, dated 2025).

Biological target: hERG potassium channels (Homo sapiens, UniProt Q12809)
Test: hERG channel inhibition, automated patch-clamp in HEK293-hERG stable transfected cell line
Conditions: read-out: IC50 values of blocking effects on hERG potassium currents, whole-cell patch-clamp, tail currents

Chain of hERG potassium channels (Q12809 whole entry): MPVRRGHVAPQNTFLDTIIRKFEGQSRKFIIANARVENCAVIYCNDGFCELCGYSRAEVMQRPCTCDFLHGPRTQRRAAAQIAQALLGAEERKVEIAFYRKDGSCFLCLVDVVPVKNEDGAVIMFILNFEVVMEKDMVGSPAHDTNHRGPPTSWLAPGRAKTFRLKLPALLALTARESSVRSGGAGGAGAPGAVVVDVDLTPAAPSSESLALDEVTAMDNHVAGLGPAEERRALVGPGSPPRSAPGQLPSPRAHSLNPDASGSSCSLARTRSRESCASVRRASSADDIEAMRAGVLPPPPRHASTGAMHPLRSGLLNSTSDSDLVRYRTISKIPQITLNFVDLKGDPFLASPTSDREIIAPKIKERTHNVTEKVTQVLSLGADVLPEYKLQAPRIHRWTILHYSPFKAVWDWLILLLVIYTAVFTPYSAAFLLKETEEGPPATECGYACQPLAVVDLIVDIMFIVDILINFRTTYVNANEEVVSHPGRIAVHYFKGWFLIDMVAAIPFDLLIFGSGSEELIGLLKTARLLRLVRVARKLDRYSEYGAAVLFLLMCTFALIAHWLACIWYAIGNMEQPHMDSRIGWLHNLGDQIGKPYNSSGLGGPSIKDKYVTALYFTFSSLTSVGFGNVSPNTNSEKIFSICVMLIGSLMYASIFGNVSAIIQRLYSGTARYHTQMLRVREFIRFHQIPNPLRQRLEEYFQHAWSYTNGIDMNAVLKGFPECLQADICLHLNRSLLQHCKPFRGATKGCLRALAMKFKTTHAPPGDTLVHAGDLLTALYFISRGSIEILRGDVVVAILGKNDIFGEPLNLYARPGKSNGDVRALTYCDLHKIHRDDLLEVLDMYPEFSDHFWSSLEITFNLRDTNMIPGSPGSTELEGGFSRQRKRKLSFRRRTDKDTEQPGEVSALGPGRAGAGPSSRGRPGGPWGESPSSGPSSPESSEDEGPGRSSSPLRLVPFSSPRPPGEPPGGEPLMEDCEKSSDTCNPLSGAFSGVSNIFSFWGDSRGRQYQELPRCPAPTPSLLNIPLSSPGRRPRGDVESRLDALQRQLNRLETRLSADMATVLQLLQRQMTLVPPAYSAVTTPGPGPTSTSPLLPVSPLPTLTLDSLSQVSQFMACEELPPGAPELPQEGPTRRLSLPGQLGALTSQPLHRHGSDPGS

Structure (SMILES): C=C(C)C(=O)NCCOc1c(N)ncnc1-c1cc(F)cc(NC(=O)c2sc3c(c2F)CC2(CC2)C3)c1C [Example 26-1, N-(3-(6-amino-5-(2-(N-methacrylamido)ethoxy)pyrimidin-4-yl)-5-fluoro-2-methylphenyl)-3-fluoro-4,6-dihydrospiro[cyclopenta[b]thiophene-5,1'-cyclopropane]-2-carboxamide]
- IC50: 14 µM
